The test system of the series is rodent lifetime carcinogenesis bioassay, tumor incidence TD50. Nature of the series: chronic cancer bioassays in animals – CPDB, compiled studies (AID 1745844).

Several values for one entry are separate records, joined by “and”; a condition that tells them apart may be missing. Equal values may be shown once. Activity calls are given as the source filed them. The rule behind the calls is not given here.

`CCOc1ccc(NC(C)=O)cc1`: the TD50 by setting is: (mouse, strain B6C3F1, females, in feed, site: liver, lesion: hemangioma, dosed 96 weeks, study length 104 weeks) 29200 mg/kg/day (inactive); (mouse, strain B6C3F1, females, in feed, site: liver, lesion: hepatocellular carcinoma, dosed 96 weeks, study length 104 weeks) 47700 mg/kg/day (inactive); (mouse, strain B6C3F1, females, in feed, site: liver, lesion: hyperplastic nodule, dosed 96 weeks, study length 104 weeks) 14000 mg/kg/day (inactive); (mouse, strain B6C3F1, females, in feed, site: lung, lesion: adenocarcinoma, dosed 96 weeks, study length 104 weeks) 8830 mg/kg/day (inactive); (mouse, strain B6C3F1, females, in feed, site: lung, lesion: adenoma, dosed 96 weeks, study length 104 weeks) 6890 mg/kg/day (inactive); (mouse, strain B6C3F1, females, in feed, site: urinary bladder, lesion: papilloma, dosed 96 weeks, study length 104 weeks) 37000 mg/kg/day. Also, the TD50 (mouse, strain B6C3F1, females, in feed, site: urinary bladder, lesion: transitional-cell carcinoma, dosed 96 weeks, study length 104 weeks) was 37000 mg/kg/day; the TD50 (mouse, strain B6C3F1, males, in feed, site: kidney, lesion: renal-cell adenoma, dosed 96 weeks, study length 104 weeks) is 1100 mg/kg/day; the TD50 (mouse, strain B6C3F1, males, in feed, site: kidney, lesion: renal-cell carcinoma, dosed 96 weeks, study length 104 weeks) was found to be 4020 mg/kg/day; the TD50 (mouse, strain B6C3F1, males, in feed, site: liver, lesion: hepatocellular carcinoma, dosed 96 weeks, study length 104 weeks) is 17100 mg/kg/day (inactive); the TD50 (mouse, strain B6C3F1, males, in feed, site: lung, lesion: adenocarcinoma, dosed 96 weeks, study length 104 weeks) was 3800 mg/kg/day (inactive); the TD50 (mouse, strain B6C3F1, males, in feed, site: lung, lesion: adenoma, dosed 96 weeks, study length 104 weeks) is 5280 mg/kg/day (inactive). For the same molecule, the TD50 runs as follows: (mouse, strain C57BL/6, males, in feed, site: liver, lesion: hyperplastic nodule, dosed 77 weeks, study length 77 weeks) 12900 mg/kg/day (inactive); (rat, strain Sprague-Dawley, females, in feed, site: all sites, lesion: myeloid leukemia, dosed 78 weeks, study length 104 weeks) 2560 mg/kg/day (inactive); (rat, strain Sprague-Dawley, females, in feed, site: any site (literature study), lesion: several types, types named in the paper, dosed 78 weeks, study length 104 weeks) 1210 mg/kg/day; (rat, strain Sprague-Dawley, females, in feed, site: ear duct, lesion: squamous-cell carcinoma, dosed 110 weeks, study length 110 weeks) 1430 mg/kg/day; (rat, strain Sprague-Dawley, females, in feed, site: mammary gland, lesion: adenocarcinoma, dosed 110 weeks, study length 110 weeks) 1380 mg/kg/day; (rat, strain Sprague-Dawley, females, in feed, site: nasal cavity, lesion: adenocarcinoma, dosed 78 weeks, study length 104 weeks) 7730 mg/kg/day. For the same molecule, the TD50 (rat, strain Sprague-Dawley, females, in feed, site: nasal cavity, lesion: squamous-cell carcinoma, dosed 78 weeks, study length 104 weeks) was 48000 mg/kg/day; the TD50 (rat, strain Sprague-Dawley, females, in feed, site: nasal cavity, lesion: transitional-cell carcinoma, dosed 78 weeks, study length 104 weeks) is 23800 mg/kg/day; the TD50 (rat, strain Sprague-Dawley, females, in feed, site: several sites, sites named in the paper, lesion: several types, types named in the paper, dosed 78 weeks, study length 104 weeks) is 2730 mg/kg/day; the TD50 (rat, strain Sprague-Dawley, females, in feed, site: urinary bladder, lesion: papilloma, dosed 78 weeks, study length 104 weeks) was 23800 mg/kg/day; the TD50 (rat, strain Sprague-Dawley, females, in feed, site: urinary bladder, lesion: transitional-cell carcinoma, dosed 78 weeks, study length 104 weeks) is 11700 mg/kg/day; the TD50 (rat, strain Sprague-Dawley, males, in feed, site: all sites, lesion: myeloid leukemia, dosed 78 weeks, study length 104 weeks) is 2380 mg/kg/day (inactive). Further, the TD50 is, setting by setting: (rat, strain Sprague-Dawley, males, in feed, site: any site (literature study), lesion: several types, types named in the paper, dosed 78 weeks, study length 104 weeks) 631 mg/kg/day; (rat, strain Sprague-Dawley, males, in feed, site: forestomach, lesion: squamous-cell papilloma, dosed 117 weeks, study length 117 weeks) 2690 mg/kg/day; (rat, strain Sprague-Dawley, males, in feed, site: kidney cortex, lesion: renal-cell tumor, dosed 117 weeks, study length 117 weeks) 1300 mg/kg/day; (rat, strain Sprague-Dawley, males, in feed, site: kidney/pelvis, lesion: one or several types, types not named, dosed 117 weeks, study length 117 weeks) 5470 mg/kg/day; (rat, strain Sprague-Dawley, males, in feed, site: kidney/pelvis, lesion: renal-cell carcinoma, dosed 78 weeks, study length 104 weeks) 38300 mg/kg/day; (rat, strain Sprague-Dawley, males, in feed, site: liver, lesion: hemangioma, dosed 117 weeks, study length 117 weeks) 5470 mg/kg/day. Further, the TD50 was 2380 mg/kg/day (rat, strain Sprague-Dawley, males, in feed, site: nasal cavity, lesion: adenocarcinoma, dosed 78 weeks, study length 104 weeks); 7530 mg/kg/day (rat, strain Sprague-Dawley, males, in feed, site: nasal cavity, lesion: squamous-cell carcinoma, dosed 78 weeks, study length 104 weeks); 4050 mg/kg/day (rat, strain Sprague-Dawley, males, in feed, site: nasal cavity, lesion: transitional-cell carcinoma, dosed 78 weeks, study length 104 weeks); 741 mg/kg/day (rat, strain Sprague-Dawley, males, in feed, site: several sites, sites named in the paper, lesion: several types, types named in the paper, dosed 78 weeks, study length 104 weeks); 1640 mg/kg/day (rat, strain Sprague-Dawley, males, in feed, site: urinary bladder, lesion: one or several types, types not named, dosed 117 weeks, study length 117 weeks); 2710 mg/kg/day (rat, strain Sprague-Dawley, males, in feed, site: urinary bladder, lesion: transitional-cell carcinoma, dosed 78 weeks, study length 104 weeks). Also, the carcinogen call runs as follows: (mouse, strain B6C3F1, males, in feed, site: liver, lesion: hemangioma, dosed 96 weeks, study length 104 weeks) “negative (inactive)”; (mouse, strain B6C3F1, males, in feed, site: liver, lesion: hyperplastic nodule, dosed 96 weeks, study length 104 weeks) “negative (inactive)”; (mouse, strain C57BL/6, females, in feed, site: liver, lesion: one or several types, types not named, dosed 77 weeks, study length 77 weeks) “negative (inactive)”; (rat, strain Wistar, females, in feed, site: urinary tract, lesion: one or several types, types not named, dosed 69 weeks, study length 69 weeks) “negative (inactive)”.

Take `CCCCC(CC)COP(=O)(OCC(CC)CCCC)OCC(CC)CCCC` (stereo not given): the TD50 is 2220 mg/kg/day (mouse, strain B6C3F1, females, by gavage, site: liver, lesion: hepatocellular adenoma + hepatocellular carcinoma + neoplastic nodule, dosed 103 weeks, study length 104 weeks); 2220 mg/kg/day (mouse, strain B6C3F1, females, by gavage, site: liver, lesion: hepatocellular adenoma + hepatocellular carcinoma, dosed 103 weeks, study length 104 weeks); 2560 mg/kg/day (mouse, strain B6C3F1, females, by gavage, site: liver, lesion: hepatocellular carcinoma, dosed 103 weeks, study length 104 weeks); 13700 mg/kg/day (mouse, strain B6C3F1, females, by gavage, site: lung, lesion: alveolar/bronchiolar adenoma + alveolar/bronchiolar carcinoma, dosed 103 weeks, study length 104 weeks); 9000 mg/kg/day (mouse, strain B6C3F1, males, by gavage, site: liver, lesion: hepatocellular adenoma + hepatocellular carcinoma + neoplastic nodule, dosed 103 weeks, study length 104 weeks); 230000 mg/kg/day (inactive) (rat, strain Fischer 344, females, by gavage, site: any site (literature study), lesion: several types, types named in the paper, dosed 103 weeks, study length 104 weeks). Further, the TD50 runs as follows: (rat, strain Fischer 344, males, by gavage, site: adrenal gland, lesion: pheochromocytoma + pheochromocytoma, malignant, dosed 103 weeks, study length 104 weeks) 5290 mg/kg/day; (rat, strain Fischer 344, males, by gavage, site: adrenal gland, lesion: pheochromocytoma, dosed 103 weeks, study length 104 weeks) 5290 mg/kg/day; (rat, strain Fischer 344, males, by gavage, site: any site (literature study), lesion: several types, types named in the paper, dosed 103 weeks, study length 104 weeks) 14200 mg/kg/day; (rat, strain Fischer 344, males, by gavage, site: thyroid gland + thyroid follicle, lesion: follicular-cell adenoma + cystadenoma, NOS, dosed 103 weeks, study length 104 weeks) 28000 mg/kg/day; (rat, strain Fischer 344, males, by gavage, site: thyroid gland + thyroid follicle, lesion: follicular-cell adenoma + follicular-cell carcinoma + cystadenoma, NOS, dosed 103 weeks, study length 104 weeks) 16700 mg/kg/day. Under “mouse, strain B6C3F1, males, by gavage, site: any site (literature study), lesion: several types, types named in the paper, dosed 103 weeks, study length 104 weeks”, the carcinogen call was “negative (inactive)”.

As to `CC(O)COC(C)(C)C` (stereo not given), the TD50 by setting is: (mouse, strain B6C3F1, females, inhaled, site: any site (literature study), lesion: several types, types named in the paper, dosed 104 weeks, study length 104 weeks) 8120 mg/kg/day; (mouse, strain B6C3F1, females, inhaled, site: liver, lesion: hepatocellular adenoma + hepatoblastoma + hepatocellular carcinoma, dosed 104 weeks, study length 104 weeks) 1780 mg/kg/day; (mouse, strain B6C3F1, females, inhaled, site: liver, lesion: hepatocellular adenoma + hepatocellular carcinoma, dosed 104 weeks, study length 104 weeks) 1780 mg/kg/day; (mouse, strain B6C3F1, females, inhaled, site: liver, lesion: hepatocellular adenoma, dosed 104 weeks, study length 104 weeks) 1780 mg/kg/day; (mouse, strain B6C3F1, males, inhaled, site: any site (literature study), lesion: several types, types named in the paper, dosed 104 weeks, study length 104 weeks) 7930 mg/kg/day; (mouse, strain B6C3F1, males, inhaled, site: liver, lesion: hepatoblastoma, dosed 104 weeks, study length 104 weeks) 9320 mg/kg/day. The TD50 reads like this: (mouse, strain B6C3F1, males, inhaled, site: liver, lesion: hepatocellular adenoma + hepatoblastoma + hepatocellular carcinoma, dosed 104 weeks, study length 104 weeks) 1980 mg/kg/day; (mouse, strain B6C3F1, males, inhaled, site: liver, lesion: hepatocellular adenoma + hepatocellular carcinoma, dosed 104 weeks, study length 104 weeks) 1980 mg/kg/day; (mouse, strain B6C3F1, males, inhaled, site: liver, lesion: hepatocellular adenoma, dosed 104 weeks, study length 104 weeks) 1970 mg/kg/day; (rat, strain Fischer 344, females, inhaled, site: liver, lesion: hepatocellular adenoma + hepatoblastoma + hepatocellular carcinoma, dosed 104 weeks, study length 104 weeks) 10500 mg/kg/day; (rat, strain Fischer 344, males, inhaled, site: any site (literature study), lesion: several types, types named in the paper, dosed 104 weeks, study length 104 weeks) 683 mg/kg/day; (rat, strain Fischer 344, males, inhaled, site: kidney, lesion: tubule adenoma + tubule carcinoma, dosed 104 weeks, study length 104 weeks) 2280 mg/kg/day and 2650 mg/kg/day. For the same molecule, the TD50 was 4480 mg/kg/day and 3800 mg/kg/day (rat, strain Fischer 344, males, inhaled, site: kidney, lesion: tubule adenoma, dosed 104 weeks, study length 104 weeks); 1450 mg/kg/day (rat, strain Fischer 344, males, inhaled, site: liver, lesion: hepatocellular adenoma + hepatoblastoma + hepatocellular carcinoma, dosed 104 weeks, study length 104 weeks); 1450 mg/kg/day (rat, strain Fischer 344, males, inhaled, site: liver, lesion: hepatocellular adenoma, dosed 104 weeks, study length 104 weeks); 1510 mg/kg/day (rat, strain Fischer 344, males, inhaled, site: skin, lesion: basal-cell adenoma + basal-cell carcinoma, dosed 104 weeks, study length 104 weeks); 2070 mg/kg/day (rat, strain Fischer 344, males, inhaled, site: skin, lesion: basal-cell adenoma, dosed 104 weeks, study length 104 weeks). Besides, the carcinogen call (rat, strain Fischer 344, females, inhaled, site: any site (literature study), lesion: several types, types named in the paper, dosed 104 weeks, study length 104 weeks) is “negative (inactive)”.

Source of the values: PubChem BioAssay AID1745844 (Carcinogenic Potency Database (CPDB), 2022).
